# According to paper PMC6968685 (Journal of Enzyme Inhibition and Medicinal Chemistry, 2020):
# Where a name gives a salt, the structure may show the parent alone.
row,melting point [°C],SMILES
1,227 to 229,"COc1ccc2nc(-c3ccc(CNCCCN4CCN(C)CC4)cc3)nc(-c3ccc(CNCCCN4CCN(C)CC4)cc3)c2c1 (as salt: (cooh)2) [Compound 3k, 6-Methoxy-2,4-bis{4-[(3–(4-methylpiperazin-1-yl)propyl)aminomethyl]phenyl}quinazoline]"
2,227 to 229,"COc1ccc2nc(-c3ccc(CNCCCCN(C)C)cc3)cc(-c3ccc(CNCCCCN(C)C)cc3)c2c1 (as salt: (cooh)2) [Compound 1i, 6-Methoxy-2,4-bis{4-[(4-dimethylaminobutyl)aminomethyl]phenyl}quinoline]"
3,237 to 239,"CN1CCN(CCCNCc2cccc(-c3cc(-c4cccc(CNCCCN5CCN(C)CC5)c4)c4ccccc4n3)c2)CC1 (as salt: (cooh)2) [Compound 1r, 2,4-Bis{3-[(3–(4-methylpiperazin-1-yl)propyl)aminomethyl]phenyl}quinoline]"
4,208 to 210,"COc1ccc2c(-c3ccc(CNCCCCN(C)C)cc3)cc(-c3ccc(CNCCCCN(C)C)cc3)nc2c1 (as salt: (cooh)2) [Compound 1m, 7-Methoxy-2,4-bis{4-[(4-dimethylaminobutyl)aminomethyl]phenyl}quinoline]"
5,226 to 228,COc1ccc2c(-c3ccc(CNCCCN4CCN(C)CC4)cc3)nc(-c3ccc(CNCCCN4CCN(C)CC4)cc3)cc2c1 (as salt: (cooh)2) [Compound 2l]
6,216 to 218,"COc1ccc2c(-c3ccc(CNCCCCN4CCN(C)CC4)cc3)nc(-c3ccc(CNCCCCN4CCN(C)CC4)cc3)cc2c1 (as salt: (cooh)2) [Compound 2k, 6-Methoxy-1,3-bis{4-[(4–(4-methylpiperazin-1-yl)butyl)aminomethyl]phenyl}isoquinoline]"
7,223 to 225,"COc1ccc2c(-c3ccc(CNCCCN(C)C)cc3)nc(-c3ccc(CNCCCN(C)C)cc3)nc2c1 (as salt: (cooh)2) [Compound 3n, 7-Methoxy-2,4-bis{4-[(3-dimethylaminopropyl)aminomethyl]phenyl}quinazoline]"
8,181 to 183,"CN1CCN(CCCCNCc2ccc(-c3cc4ccccc4c(-c4ccc(CNCCCCN5CCN(C)CC5)cc4)n3)cc2)CC1 (as salt: (cooh)2) [Compound 2c, 1,3-Bis{4-[(4–(4-methylpiperazin-1-yl)butyl)aminomethyl]phenyl}isoquinoline]"
9,224 to 226,"COc1ccc2nc(-c3ccc(CNCCCN(C)C)cc3)cc(-c3ccc(CNCCCN(C)C)cc3)c2c1 (as salt: (cooh)2) [Compound 1j, 6-Methoxy-2,4-bis{4-[(3-dimethylaminopropyl)aminomethyl]phenyl}quinoline]"
10,238 to 240,"COc1ccc2c(-c3ccc(CNCCN4CCN(C)CC4)cc3)nc(-c3ccc(CNCCN4CCN(C)CC4)cc3)nc2c1 (as salt: (cooh)2) [Compound 3r, 7-Methoxy-2,4-bis{4-[(2–(4-methylpiperazin-1-yl)ethyl)aminomethyl]phenyl}quinazoline]"
11,195 to 197,"COc1ccc2cc(-c3ccc(CNCCCN4CCN(C)CC4)cc3)nc(-c3ccc(CNCCCN4CCN(C)CC4)cc3)c2c1 (as salt: (cooh)2) [Compound 2h, 7-Methoxy-1,3-bis{4-[(3–(4-methylpiperazin-1-yl)propyl)aminomethyl]phenyl}isoquinoline]"
12,184 to 186,"CN(C)CCCCNCc1ccc(-c2cc3ccccc3c(-c3ccc(CNCCCCN(C)C)cc3)n2)cc1 (as salt: (cooh)2) [Compound 2a, 1,3-Bis{4-[(4-dimethylaminobutyl)aminomethyl]phenyl}isoquinoline]"
13,203 to 205,"CN(C)CCNCc1ccc(-c2nc(-c3ccc(CNCCN(C)C)cc3)c3ccccc3n2)cc1 (as salt: (cooh)2) [Compound 3c, 2,4-Bis{4-[(2-dimethylaminoethyl)aminomethyl]phenyl}quinazoline]"
14,223 to 225,"CN1CCN(CCCCNCc2ccc(-c3nc(-c4ccc(CNCCCCN5CCN(C)CC5)cc4)c4ccccc4n3)cc2)CC1 (as salt: (cooh)2) [Compound 3d, 2,4-Bis{4-[(4–(4-methylpiperazin-1-yl)butyl)aminomethyl]phenyl}quinazoline]"
15,225 to 227,"CN1CCN(CCCCNCc2ccc(-c3cc(-c4ccc(CNCCCCN5CCN(C)CC5)cc4)c4ccccc4n3)cc2)CC1 (as salt: (cooh)2) [Compound 1d, 2,4-Bis{4-[(4–(4-methylpiperazin-1-yl)butyl)aminomethyl]phenyl}quinoline]"
16,186 to 188,"c1cc(CNCCCN2CCOCC2)cc(-c2nc(-c3cccc(CNCCCN4CCOCC4)c3)c3ccccc3n2)c1 (as salt: (cooh)2) [Compound 3u, 2,4-Bis{3-[(3-morpholinopropyl)aminomethyl]phenyl}quinazoline]"
17,229 to 231,"COc1ccc2nc(-c3ccc(CNCCN4CCN(C)CC4)cc3)nc(-c3ccc(CNCCN4CCN(C)CC4)cc3)c2c1 (as salt: (cooh)2) [Compound 3l, 6-Methoxy-2,4-bis{4-[(2–(4-methylpiperazin-1-yl)ethyl)aminomethyl]phenyl}quinazoline]"
18,223 to 225,"COc1ccc2nc(-c3ccc(CNCCCN4CCN(C)CC4)cc3)cc(-c3ccc(CNCCCN4CCN(C)CC4)cc3)c2c1 (as salt: (cooh)2) [Compound 1l, 6-Methoxy-2,4-bis{4-[(3–(4-methylpiperazin-1-yl)propyl)aminomethyl]phenyl}quinoline]"
19,234 to 236,"COc1ccc2c(-c3ccc(CNCCN(C)C)cc3)nc(-c3ccc(CNCCN(C)C)cc3)nc2c1 (as salt: (cooh)2) [Compound 3o, 7-Methoxy-2,4-bis{4-[(2-dimethylaminoethyl)aminomethyl]phenyl}quinazoline]"
20,222 to 224,"COc1ccc2c(-c3ccc(CNCCCCN4CCN(C)CC4)cc3)nc(-c3ccc(CNCCCCN4CCN(C)CC4)cc3)nc2c1 (as salt: (cooh)2) [Compound 3p, 7-Methoxy-2,4-bis{4-[(4–(4-methylpiperazin-1-yl)butyl)aminomethyl]phenyl}quinazoline]"
21,235 to 237,"COc1ccc2nc(-c3ccc(CNCCCCN4CCN(C)CC4)cc3)cc(-c3ccc(CNCCCCN4CCN(C)CC4)cc3)c2c1 (as salt: (cooh)2) [Compound 1k, 6-Methoxy-2,4-bis{4-[(4–(4-methylpiperazin-1-yl)butyl)aminomethyl]phenyl}quinoline]"
22,258 to 260,"CN(C)CCCCNCc1ccc(-c2cc(-c3ccc(CNCCCCN(C)C)cc3)c3ccccc3n2)cc1 (as salt: (cooh)2) [Compound 1a, 2,4-Bis{4-[(4-dimethylaminobutyl)aminomethyl]phenyl}quinoline]"
23,235 to 237,"c1ccc2c(-c3ccc(CNCCN4CCOCC4)cc3)cc(-c3ccc(CNCCN4CCOCC4)cc3)nc2c1 (as salt: (cooh)2) [Compound 1h, 2,4-Bis{4-[(2-morpholinoethyl)aminomethyl]phenyl}quinoline]"
24,237 to 239,"COc1ccc2c(-c3ccc(CNCCCN(C)C)cc3)cc(-c3ccc(CNCCCN(C)C)cc3)nc2c1 (as salt: (cooh)2) [Compound 1n, 7-Methoxy-2,4-bis{4-[(3-dimethylaminopropyl)aminomethyl]phenyl}quinoline]"

row,SMILES,melting point [°C]
1,"CN(C)CCCNCc1ccc(-c2cc(-c3ccc(CNCCCN(C)C)cc3)c3ccccc3n2)cc1 (as salt: (cooh)2) [Compound 1b, 2,4-Bis{4-[(3-dimethylaminopropyl)aminomethyl]phenyl}quinoline]",244 to 246
2,"c1ccc2c(-c3ccc(CNCCN4CCOCC4)cc3)nc(-c3ccc(CNCCN4CCOCC4)cc3)nc2c1 (as salt: (cooh)2) [Compound 3g, 2,4-Bis{4-[(2-morpholinoethyl)aminomethyl]phenyl}quinazoline]",195 to 197
3,"c1ccc2c(-c3ccc(CNCCCN4CCOCC4)cc3)nc(-c3ccc(CNCCCN4CCOCC4)cc3)nc2c1 (as salt: (cooh)2) [Compound 3f, 2,4-Bis{4-[(3-morpholinopropyl)aminomethyl]phenyl}quinazoline]",183 to 185
4,"CN(C)CCCNCc1ccc(-c2nc(-c3ccc(CNCCCN(C)C)cc3)c3ccccc3n2)cc1 (as salt: (cooh)2) [Compound 3b, 2,4-Bis{4-[(3-dimethylaminopropyl)aminomethyl]phenyl}quinazoline]",203 to 205
5,"CN1CCN(CCCNCc2ccc(-c3cc(-c4ccc(CNCCCN5CCN(C)CC5)cc4)c4ccccc4n3)cc2)CC1 (as salt: (cooh)2) [Compound 1e, 2,4-Bis{4-[(3–(4-methylpiperazin-1-yl)propyl)aminomethyl]phenyl}quinoline]",249 to 251
6,"COc1ccc2nc(-c3ccc(CNCCN(C)C)cc3)nc(-c3ccc(CNCCN(C)C)cc3)c2c1 (as salt: (cooh)2) [Compound 3j, 6-Methoxy-2,4-bis{4-[(2-dimethylaminoethyl)aminomethyl]phenyl}quinazoline]",233 to 235
7,"c1ccc2c(-c3ccc(CNCCCN4CCOCC4)cc3)cc(-c3ccc(CNCCCN4CCOCC4)cc3)nc2c1 (as salt: (cooh)2) [Compound 1g, 2,4-Bis{4-[(3-morpholinopropyl)aminomethyl]phenyl}quinoline]",202 to 204
8,"CN1CCN(CCNCc2ccc(-c3cc(-c4ccc(CNCCN5CCN(C)CC5)cc4)c4ccccc4n3)cc2)CC1 (as salt: (cooh)2) [Compound 1f, 2,4-Bis{4-[(2–(4-methylpiperazin-1-yl)ethyl)aminomethyl]phenyl}quinoline]",240 to 242
9,"c1cc(CNCCCN2CCOCC2)cc(-c2cc(-c3cccc(CNCCCN4CCOCC4)c3)c3ccccc3n2)c1 (as salt: (cooh)2) [Compound 1s, 2,4-Bis{3-[(3-morpholinopropyl)aminomethyl]phenyl}quinoline]",221 to 223
10,"COc1ccc2c(-c3ccc(CNCCCN(C)C)cc3)nc(-c3ccc(CNCCCN(C)C)cc3)cc2c1 (as salt: (cooh)2) [Compound 2j, 6-Methoxy-1,3-bis{4-[(3-dimethylaminopropyl)aminomethyl]phenyl}isoquinoline]",171 to 173
